# Reference: patent US6436959B1 (priority 1998, dated 2002)
# What was measured:
# δ-opioid receptor = biological target: T1, δ-opioid receptor (Rattus norvegicus, UniProt P33533); conditions: read-out: Ki in binding to the δ-opioid receptor
# T1 construct: the forebrains are homogenized in Tris buffer in a Teflon®-glass homogenizer; from tissue; host or cells: forebrain of male Wistar rats, particulate (membrane) preparation
# opioid delta receptor = biological target: T2, opioid delta receptor (Homo sapiens, UniProt P41143); assay type: binding
# T2 construct: purchased Receptor Biology, Baltimore, Md; host or cells: CHO cells (recombinant, membranes)
# T2 sequence (P41143 whole entry): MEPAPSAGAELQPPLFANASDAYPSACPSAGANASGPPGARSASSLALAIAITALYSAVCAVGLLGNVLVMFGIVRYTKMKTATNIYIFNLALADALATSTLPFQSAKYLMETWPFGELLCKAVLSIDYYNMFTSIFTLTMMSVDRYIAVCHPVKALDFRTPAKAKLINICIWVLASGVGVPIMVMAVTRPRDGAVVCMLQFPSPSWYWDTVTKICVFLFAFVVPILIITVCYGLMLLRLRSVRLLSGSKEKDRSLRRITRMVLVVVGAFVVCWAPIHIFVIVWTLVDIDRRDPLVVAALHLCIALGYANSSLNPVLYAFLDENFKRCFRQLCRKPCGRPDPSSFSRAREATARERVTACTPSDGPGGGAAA
# [1] = system: acetylcholine bromide-induced abdominal constriction response; assay: Mouse Acetylcholine Bromide-Induced Abdominal Constriction Assay; assay type: in vivo; conditions: p.o., 30 minutes before i.p. 5.5 mg/kg acetylcholine bromide, % inhibition of constriction response (% analgesia)
# Protocol: C) Mouse Acetylcholine Bromide-Induced Abdominal Constriction Assay
# The mouse acetylcholine-induced abdominal constiction assay, as described by Collier et al. in Brit. J. Pharmacol. Chem. Ther., 32: 295-310, 1968, with minor modifications was used to assess analgesic potency of the compounds of formula (I). The test drugs or appropriate vehicles were administered orally (p.o.) and 30 minutes later the animal received an intraperitoneal (i.p.) injection of 5.5 mg/kg acetylcholine bromide (Matheson, Coleman and Bell, East Rutherford, N.J.). The mice were then placed in groups of three into glass bell jars and observed for a ten minute observation period for the occurrence of an abdominal constriction response (defined as a wave of constriction and elongation passing caudally along the abdominal wall, accompanied by a twisting of the trunk and followed by extension of the hind limbs). The percent inhibition of this response to a nociceptive stimulus (equated to % analgesia) was calculated as follows: The % inhibition of response, i.e., % analgesia is equal to the difference between the No. of control animal responses and the No. of drug-treated animal responses times 100 divided by the No. of control animals responding.
# μ-opioid receptor = μ-opioid receptor (Rattus norvegicus, UniProt P33535); conditions: read-out: Ki in binding to the μ-opioid receptor; rat forebrain preparation, [3H]DAMGO, 25° C.
# Sequence of μ-opioid receptor (P33535 whole entry): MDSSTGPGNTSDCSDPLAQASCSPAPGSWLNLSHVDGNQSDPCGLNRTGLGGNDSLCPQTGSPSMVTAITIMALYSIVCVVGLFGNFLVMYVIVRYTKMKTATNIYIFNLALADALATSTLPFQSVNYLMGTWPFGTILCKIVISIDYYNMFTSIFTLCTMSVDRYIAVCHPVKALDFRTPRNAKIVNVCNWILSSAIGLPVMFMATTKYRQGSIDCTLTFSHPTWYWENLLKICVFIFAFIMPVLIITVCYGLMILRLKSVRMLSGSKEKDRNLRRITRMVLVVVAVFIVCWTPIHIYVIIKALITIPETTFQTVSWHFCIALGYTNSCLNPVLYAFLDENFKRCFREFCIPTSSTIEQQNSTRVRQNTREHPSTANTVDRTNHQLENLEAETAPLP
# T1 sequence (P33533 whole entry): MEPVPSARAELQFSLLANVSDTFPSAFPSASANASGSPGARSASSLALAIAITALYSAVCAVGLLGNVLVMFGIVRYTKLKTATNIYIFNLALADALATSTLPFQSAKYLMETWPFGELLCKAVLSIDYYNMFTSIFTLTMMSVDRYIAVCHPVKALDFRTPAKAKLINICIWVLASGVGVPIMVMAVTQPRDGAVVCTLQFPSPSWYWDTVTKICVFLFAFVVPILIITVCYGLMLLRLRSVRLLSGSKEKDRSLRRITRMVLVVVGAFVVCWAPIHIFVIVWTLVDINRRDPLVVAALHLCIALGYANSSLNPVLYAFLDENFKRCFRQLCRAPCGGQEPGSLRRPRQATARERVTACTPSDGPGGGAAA
smiles,measurement,setting,value
"CCCN1CCC(N(c2ccccc2)c2cccc(C(=O)N(C)c3ccccc3)c2)CC1.O=C(O)/C=C/C(=O)O [C4, N-Methyl-N-phenyl-3-[phenyl(1-propylpiperidin-4-yl)amino]benzamide Fumarate[1:1.4]]",Ki,δ-opioid receptor,0.025 µM
same,% I @ 25 μM,opioid delta receptor,41%
same,ED50,[1],4.2 µmol/kg
same,Ki,μ-opioid receptor,0.153 µM
